The assay addresses T1, Human GRIN1 and human GRIN2B expressing HEK293 cells (Homo sapiens, UniProt Q13224).
T1 construct: host or cells: HEK293
The experiment in a line: NR2B Ca2+ flux assay. The class given is cell-based. As to conditions: 10 μM test compound, glutamic acid/glycine stimulated Fluo-4 fluorescence, FLIPR, read-out: inhibitory rate (@10 μM). The protocol: Experimental Example 1 NR2B Ca^2+ Flux Assay
Human GRIN1 and human GRIN2B expressing HEK293 cells were purchased from ChanTest. The cells were cultured in a DMEM/F-12 (COSMO BIO, 10-092-CM) medium added with 10% FBS (fetal bovine serum, AusGene), 100 units/mL penicillin, 100 μg/mL streptomycin, 500 μg/mL neomycin, 100 μg/mL Zeocin, 5 μg/mL Blasticidin at 37° C., 5% CO2. The cells were detached from flask with trypsin the day before the assay, suspended in a seeding medium (DMEM (Invitrogen, 31053) added with 10% FBS, 100 units/mL penicillin, 100 μg/mL streptomycin) at 8×10^5 cells/mL, seeded by 25 μL per well in a 384-well plate (Falcon, 356663) at 20000 cells/well, and cultured overnight in an incubator. On the day of the assay, tetracycline (Wako Pure Chemical Industries, Ltd., 209-16561) was diluted with the seeding medium at 2 μg/mL, added at […] to the plate seeded with the cells, and cultured for 2 hr in an incubator. Thereafter, the medium was removed, and the cells were washed with 50 μL/well assay buffer (137 mM NaCl, 4 mM KCl, 1.8 mM CaCl2, 10 mM HEPES (pH 7.2), 10 mM Glucose, 0.1% BSA). Then, a loading buffer (assay buffer added with 2.5 uM Fluo-4AM, 2 mM Amaranth, 1 mM Tartrazine) was added at 25 μL/well, and loading was performed in the incubator for 30 min, and at room temperature for 15 min. A test compound (25 μL) was added, and the cells were stood for 15 min at room temperature. Using FLIPR (Molecular Devices), 25 μL of an assay buffer containing […], 30 μM glycine was added, and the fluorescence signal was measured every 3 seconds for 5 min. The inhibitory activity was calculated as a relative activity value that inhibits 100% of the cumulative value of the fluorescence value of a well added with a buffer free of glutamic acid, glycine, relative to the cumulative value of the fluorescence value of each well.
On the technique in general: Calcium flux is commonly read through the fluorescence of an indicator in the cells.
T1 sequence (Q13224 27-1484, other chains not shown): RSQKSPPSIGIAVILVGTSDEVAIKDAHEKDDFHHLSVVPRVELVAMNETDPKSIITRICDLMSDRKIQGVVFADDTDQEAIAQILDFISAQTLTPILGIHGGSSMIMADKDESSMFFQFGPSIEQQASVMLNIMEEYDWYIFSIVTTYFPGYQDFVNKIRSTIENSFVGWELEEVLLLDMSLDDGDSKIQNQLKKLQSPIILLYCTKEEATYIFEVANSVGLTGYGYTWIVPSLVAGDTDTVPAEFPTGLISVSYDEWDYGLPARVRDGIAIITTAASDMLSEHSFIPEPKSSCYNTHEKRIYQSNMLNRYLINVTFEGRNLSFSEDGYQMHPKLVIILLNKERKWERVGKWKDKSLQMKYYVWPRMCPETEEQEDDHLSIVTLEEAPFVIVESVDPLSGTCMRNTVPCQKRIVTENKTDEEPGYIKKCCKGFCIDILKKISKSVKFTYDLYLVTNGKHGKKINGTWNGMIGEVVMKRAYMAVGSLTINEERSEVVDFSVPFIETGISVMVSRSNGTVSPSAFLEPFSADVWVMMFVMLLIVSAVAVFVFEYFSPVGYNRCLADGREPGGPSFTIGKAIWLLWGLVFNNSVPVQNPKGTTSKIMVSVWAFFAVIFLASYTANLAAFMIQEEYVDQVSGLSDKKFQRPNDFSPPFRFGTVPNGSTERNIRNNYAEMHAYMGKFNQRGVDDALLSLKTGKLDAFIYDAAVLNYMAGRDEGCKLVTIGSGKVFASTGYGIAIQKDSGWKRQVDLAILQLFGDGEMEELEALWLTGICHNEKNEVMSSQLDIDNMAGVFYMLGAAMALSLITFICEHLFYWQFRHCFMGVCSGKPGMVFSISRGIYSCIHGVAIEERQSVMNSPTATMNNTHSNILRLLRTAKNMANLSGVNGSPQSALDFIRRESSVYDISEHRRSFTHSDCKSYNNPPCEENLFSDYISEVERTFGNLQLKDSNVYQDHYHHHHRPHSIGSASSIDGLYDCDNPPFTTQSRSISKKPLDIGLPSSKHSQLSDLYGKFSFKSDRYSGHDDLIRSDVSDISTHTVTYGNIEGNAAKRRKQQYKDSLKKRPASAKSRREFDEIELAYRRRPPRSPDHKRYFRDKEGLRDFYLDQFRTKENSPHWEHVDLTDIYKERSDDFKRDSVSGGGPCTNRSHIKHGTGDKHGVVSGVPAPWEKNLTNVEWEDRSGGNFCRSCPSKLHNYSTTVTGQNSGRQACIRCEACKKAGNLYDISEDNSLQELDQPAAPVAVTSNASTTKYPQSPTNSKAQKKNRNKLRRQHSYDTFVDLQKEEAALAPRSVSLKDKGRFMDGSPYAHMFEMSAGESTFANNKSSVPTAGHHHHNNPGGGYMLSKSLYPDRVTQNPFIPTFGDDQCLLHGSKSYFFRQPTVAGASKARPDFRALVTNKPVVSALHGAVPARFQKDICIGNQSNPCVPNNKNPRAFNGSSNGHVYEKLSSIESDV
Turning to `CCc1ccc(NC(=O)Cc2cccc3nccn23)cc1` [Example 3, N-(4-ethylphenyl)-2-(imidazo[1,2-a]pyridin-5-yl)acetamide], the inhibition at 10 µM stood at 94%. In the case of `CC(C)(C)c1ccc(NC(=O)Cc2cccc3nccn23)cc1` [Example 64, N-(4-tert-butylphenyl)-2-(imidazo[1,2-a]pyridin-5-yl)acetamide], the inhibition at 10 µM turned out to be 84%.

Turning to `O=C(Cc1cccc2nccn12)Nc1ccc(F)c(F)c1` [Example 29, N-(3,4-difluorophenyl)-2-(imidazo[1,2-a]pyridin-5-yl)acetamide], the inhibition at 10 µM is 88%. With `O=C(Cc1cccc2nccn12)Nc1ccc(Br)c(F)c1` [Example 83, N-(4-bromo-3-fluorophenyl)-2-(imidazo[1,2-a]pyridin-5-yl)acetamide] the figure was 93%; with `O=C(Cc1cccc2nccn12)Nc1ccc(C(F)(F)F)cc1` [Example 1, 2-(imidazo[1,2-a]pyridin-5-yl)-N-(4-(trifluoromethyl)phenyl)acetamide], 91%. The figure for `CCc1ccc(NC(=O)Cc2cccc3nccn23)cc1F` [Example 11, N-(4-ethyl-3-fluorophenyl)-2-(imidazo[1,2-a]pyridin-5-yl)acetamide] is 94%; for `O=C(Cc1cc(F)cc2nccn12)Nc1ccc(OC(F)(F)F)cc1` [Example 86, 2-(7-fluoroimidazo[1,2-a]pyridin-5-yl)-N-(4-(trifluoromethoxy)-phenyl)acetamide] it is 93%; for `O=C(Cc1cc(F)cc2nccn12)Nc1ccc(C(F)(F)F)cc1` [Example 90, 2-(7-fluoroimidazo[1,2-a]pyridin-5-yl)-N-(4-(trifluoromethyl)phenyl)-acetamide] it is 88%.

As for `COc1ccc(NC(=O)Cc2cccc3nccn23)cn1` [Example 24, 2-(imidazo[1,2-a]pyridin-5-yl)-N-(6-methoxypyridin-3-yl)acetamide], the inhibition at 10 µM was found to be 62%. On to `O=C(Cc1cccc2nccn12)Nc1ccc(C(F)(F)F)cc1F` [Example 43, N-(2-fluoro-4-(trifluoromethyl)phenyl)-2-(imidazo[1,2-a]pyridin-5-yl)acetamide], for which the inhibition at 10 µM was found to be 90%.

As for `O=C(Cc1cccc2nccn12)Nc1ccc(C2CC2)cc1` [Example 4, N-(4-cyclopropylphenyl)-2-(imidazo[1,2-a]pyridin-5-yl)acetamide], the inhibition at 10 µM amounted to 94%.

Turning to `O=C(Cc1cccc2nccn12)Nc1ccc(I)cc1` [Example 16, 2-(imidazo[1,2-a]pyridin-5-yl)-N-(4-iodophenyl)acetamide], the inhibition at 10 µM turned out to be 91%. The figure for `COc1c(F)cc(NC(=O)Cc2cccc3nccn23)cc1F` [Example 19, N-(3,5-difluoro-4-methoxyphenyl)-2-(imidazo[1,2-a]pyridin-5-yl)acetamide] is 91%; for `CCc1ccc2nccn2c1CC(=O)Nc1ccc(OC(F)(F)F)cc1` [Example 78, 2-(6-ethylimidazo[1,2-a]pyridin-5-yl)-N-(4-(trifluoromethoxy)phenyl)acetamide] it is 97%; for `O=C(Cc1cccc2nccn12)Nc1ccc(OC2CCC2)cc1` [Example 75, N-(4-(cyclobutyloxy)phenyl)-2-(imidazo[1,2-a]pyridin-5-yl)acetamide] it is 68%. On to `O=C(Cc1cccc2nccn12)Nc1ccccc1` [Example 26, 2-(imidazo[1,2-a]pyridin-5-yl)-N-phenylacetamide], for which the inhibition at 10 µM is 53%.

With `CN(C(=O)Cc1cccc2nccn12)c1ccc(C(F)(F)F)cc1` [Example 51, 2-(imidazo[1,2-a]pyridin-5-yl)-N-methyl-N-(4-(trifluoromethyl)phenyl)-acetamide], the inhibition at 10 µM was 56%. The figure for `COc1ccc2nccn2c1CC(=O)Nc1ccc(OC(F)(F)F)cc1` [Example 80, 2-(6-methoxyimidazo[1,2-a]pyridin-5-yl)-N-(4-(trifluoromethoxy)phenyl)acetamide] is 94%; for `O=C(Cc1c(F)ccc2nccn12)Nc1ccc(C(F)(F)F)cc1` [Example 73, 2-(6-fluoroimidazo[1,2-a]pyridin-5-yl)-N-(4-(trifluoromethyl)phenyl)-acetamide] it is 73%. The figure for `O=C(Cc1cccc2nccn12)Nc1cc2ccccc2s1` [Example 65, N-(1-benzothiophen-2-yl)-2-(imidazo[1,2-a]pyridin-5-yl)acetamide] is 83%.

For `COc1ccc(NC(=O)Cc2cccc3nccn23)cc1F` [Example 8, N-(3-fluoro-4-methoxyphenyl)-2-(imidazo[1,2-a]pyridin-5-yl)acetamide], the inhibition at 10 µM worked out at 92%.

Take `COc1ccc(NC(=O)Cc2cccc3nccn23)cc1` [Example 2, 2-(imidazo[1,2-a]pyridin-5-yl)-N-(4-methoxyphenyl)acetamide]: the inhibition at 10 µM was found to be 91%. With `Cc1ccc2nccn2c1CC(=O)Nc1ccc(OC(F)(F)F)cc1` [Example 79, 2-(6-methylimidazo[1,2-a]pyridin-5-yl)-N-(4-(trifluoromethoxy)phenyl)acetamide] the figure was 95%; with `Cc1cccc(NC(=O)Cc2cccc3nccn23)c1` [Example 30, 2-(imidazo[1,2-a]pyridin-5-yl)-N-(3-methylphenyl)acetamide], 50%; with `O=C(Cc1cccc2nccn12)Nc1ccc(Oc2ccccc2)cc1` [Example 34, 2-(imidazo[1,2-a]pyridin-5-yl)-N-(4-phenoxyphenyl)acetamide], 71%. The figure for `O=C(Cc1cccc2nccn12)Nc1ccc(Br)cc1` [Example 88, N-(4-bromophenyl)-2-(imidazo[1,2-a]pyridin-5-yl)acetamide] is 91%. For `CC(C)c1ccc(NC(=O)Cc2cccc3nccn23)cc1` [Example 66, 2-(imidazo[1,2-a]pyridin-5-yl)-N-(4-isopropylphenyl)acetamide], the inhibition at 10 µM stood at 92%. As for `O=C(Cc1cccc2nccn12)Nc1ccc(Cl)c(F)c1` [Example 7, N-(4-chloro-3-fluorophenyl)-2-(imidazo[1,2-a]pyridin-5-yl)acetamide], the inhibition at 10 µM was 90%. With `CCN(C(=O)Cc1cccc2nccn12)c1ccc(OC(F)(F)F)cc1` [Example 59, N-ethyl-2-(imidazo[1,2-a]pyridin-5-yl)-N-(4-(trifluoromethoxy)-phenyl)acetamide] the figure was 57%; with `Cc1cn2c(CC(=O)Nc3ccc(C(F)(F)F)cc3)cccc2n1` [Example 23, 2-(2-methylimidazo[1,2-a]pyridin-5-yl)-N-(4-(trifluoromethyl)phenyl)-acetamide], 81%; with `O=C(Cc1cccc2nccn12)Nc1ccc(OC(F)(F)F)cn1` [Example 92, 2-(imidazo[1,2-a]pyridin-5-yl)-N-(5-(trifluoromethoxy)-pyridin-2-yl)acetamide], 87%.

As for `O=C(Cc1cccc2nccn12)Nc1ccc(C(F)(F)F)c(Cl)c1` [Example 39, N-(3-chloro-4-(trifluoromethyl)phenyl)-2-(imidazo[1,2-a]pyridin-5-yl)acetamide], the inhibition at 10 µM worked out at 90%. The figure for `Cc1cc(CC(=O)Nc2ccc(C(F)(F)F)cc2)n2ccnc2c1` [Example 71, 2-(7-methylimidazo(1,2-a]pyridin-5-yl)-N-(4-(trifluoromethyl)phenyl)-acetamide] is 51%. Take `O=C(Cc1cccc2nccn12)Nc1ccc(OC(F)F)cc1` [Example 6, N-(4-(difluoromethoxy)phenyl)-2-(imidazo[1,2-a]pyridin-5-yl)acetamide]: the inhibition at 10 µM came to 93%. Regarding `COc1ccc2nccn2c1CC(=O)Nc1ccc(C(F)(F)F)cc1` [Example 89, 2-(6-methoxyimidazo[1,2-a]pyridin-5-yl)-N-(4-(trifluoromethyl)phenyl)-acetamide], the inhibition at 10 µM came out at 92%.

For the molecule `O=C(Cc1cccc2nccn12)Nc1ccc(C(F)(F)F)cn1` [Example 36, 2-(imidazo[1,2-a]pyridin-5-yl)-N-(5-(trifluoromethyl)pyridin-2-yl)acetamide], the inhibition at 10 µM was found to be 80%. Take `O=C(Cc1cccc2nccn12)Nc1ccc(CC(F)F)cc1` [Example 13, N-(4-(2,2-difluoroethyl)phenyl)-2-(imidazo[1,2-a]pyridin-5-yl)acetamide]: the inhibition at 10 µM is 88%. With `O=C(Cc1cccc2nccn12)Nc1ccc(C(F)(F)F)nc1` [Example 44, 2-(imidazo[1,2-a]pyridin-5-yl)-N-(6-(trifluoromethyl)pyridin-3-yl)acetamide] the figure was 71%.

(Values after patent US10202376B2, “Heterocyclic compound” (Takeda Pharmaceutical Company Limited, priority 2014, dated 2019).)
